This passage reports mutagenic call results from PubChem BioAssay AID1259407 (Chemical Carcinogenesis Research Information System (CCRIS), 2018).

Activity calls are given as the source filed them. No rule for the calls is given here.

This series has as its system CCRIS mutagenicity, Ames/micronucleus/aberration tests. The experiment in a line: CCRIS mutagenicity studies.
Where [1] appears, read: Test System: AMES SALMONELLA TYPHIMURIUM, Strain/Indicator: TA98, Metabolic Activation: HAMSTER, LIVER, S-9, AROCLOR 1254 (10%), Method: PREINCUBATION
Where [2] appears, read: Test System: AMES SALMONELLA TYPHIMURIUM, Strain/Indicator: TA98, Metabolic Activation: NONE, Method: PREINCUBATION
[3] abbreviates: Test System: AMES SALMONELLA TYPHIMURIUM, Strain/Indicator: TA98, Metabolic Activation: RAT, LIVER, S-9, AROCLOR 1254 (10%), Method: PREINCUBATION
Where [4] appears, read: Test System: AMES SALMONELLA TYPHIMURIUM, Strain/Indicator: TA100, Metabolic Activation: HAMSTER, LIVER, S-9, AROCLOR 1254 (10%), Method: PREINCUBATION
Setting [5] is: Test System: AMES SALMONELLA TYPHIMURIUM, Strain/Indicator: TA100, Metabolic Activation: NONE, Method: PREINCUBATION
The mark [6] stands for this setting: Test System: AMES SALMONELLA TYPHIMURIUM, Strain/Indicator: TA100, Metabolic Activation: RAT, LIVER, S-9, AROCLOR 1254 (10%), Method: PREINCUBATION
The mark [7] stands for this setting: Test System: AMES SALMONELLA TYPHIMURIUM, Strain/Indicator: TA1535, Metabolic Activation: HAMSTER, LIVER, S-9, AROCLOR 1254 (10%), Method: PREINCUBATION
Where [8] appears, read: Test System: AMES SALMONELLA TYPHIMURIUM, Strain/Indicator: TA1535, Metabolic Activation: NONE, Method: PREINCUBATION
The mark [9] stands for this setting: Test System: AMES SALMONELLA TYPHIMURIUM, Strain/Indicator: TA1535, Metabolic Activation: RAT, LIVER, S-9, AROCLOR 1254 (10%), Method: PREINCUBATION
Where [10] appears, read: Test System: AMES SALMONELLA TYPHIMURIUM, Strain/Indicator: TA1537, Metabolic Activation: HAMSTER, LIVER, S-9, AROCLOR 1254 (10%), Method: PREINCUBATION
The mark [11] stands for this setting: Test System: AMES SALMONELLA TYPHIMURIUM, Strain/Indicator: TA1537, Metabolic Activation: NONE, Method: PREINCUBATION
[12] abbreviates: Test System: AMES SALMONELLA TYPHIMURIUM, Strain/Indicator: TA1537, Metabolic Activation: RAT, LIVER, S-9, AROCLOR 1254 (10%), Method: PREINCUBATION
Where [13] appears, read: Test System: AMES SALMONELLA TYPHIMURIUM, Strain/Indicator: TA98, Metabolic Activation: NONE, Method: STANDARD PLATE.
Setting [14] is: Test System: AMES SALMONELLA TYPHIMURIUM, Strain/Indicator: TA98, Metabolic Activation: RAT, LIVER, S-9, AROCLOR 1254, Method: STANDARD PLATE.
[15] abbreviates: Test System: AMES SALMONELLA TYPHIMURIUM, Strain/Indicator: TA100, Metabolic Activation: NONE, Method: STANDARD PLATE.
Setting [16] is: Test System: AMES SALMONELLA TYPHIMURIUM, Strain/Indicator: TA100, Metabolic Activation: RAT, LIVER, S-9, AROCLOR 1254, Method: STANDARD PLATE.

In the case of `CCOc1ccccc1C(N)=O`, the mutagenic call (End Point: IN VITRO CHROMOSOMAL ABERRATIONS, Test System: CHL/IU CELLS, Metabolic Activation: NONE) is “active; positive (structural changes)” and the mutagenic call (End Point: IN VITRO MICRONUCLEUS, Test System: CHL/IU CELLS, Metabolic Activation: NONE) was “active; positive”.
Turning to `Cc1ccccc1N=Nc1ccc(N(C)C)cc1`, the mutagenic call runs as follows: under setting [1], “inactive; negative”; under setting [2], “inactive; negative”; under setting [3], “inactive; negative”; under setting [4], “inactive; negative”; under setting [5], “inactive; negative”; under setting [6], “inactive; negative”. Moreover, the mutagenic call by setting is: under setting [7], “inactive; negative”; under setting [8], “inactive; negative”; under setting [9], “inactive; negative”; under setting [10], “inactive; negative”; under setting [11], “inactive; negative”; under setting [12], “inactive; negative”. For the same compound, the mutagenic call is, setting by setting: (Test System: E. COLI, Strain/Indicator: WP2 UVRA, Metabolic Activation: HAMSTER, LIVER, S-9, AROCLOR 1254, Method: STANDARD PLATE) “inactive; negative”; (Test System: E. COLI, Strain/Indicator: WP2 UVRA, Metabolic Activation: HAMSTER, LIVER, S-9, Method: STANDARD PLATE) “inactive; negative”; (Test System: E. COLI, Strain/Indicator: WP2 UVRA, Metabolic Activation: MOUSE, LIVER, S-9, AROCLOR 1254, Method: STANDARD PLATE) “inactive; negative”; (Test System: E. COLI, Strain/Indicator: WP2 UVRA, Metabolic Activation: MOUSE, LIVER, S-9, Method: STANDARD PLATE) “inactive; negative”; (Test System: E. COLI, Strain/Indicator: WP2 UVRA, Metabolic Activation: NONE, Method: STANDARD PLATE) “inactive; negative”; (Test System: E. COLI, Strain/Indicator: WP2 UVRA, Metabolic Activation: RAT, LIVER, S-9, AROCLOR 1254, Method: STANDARD PLATE) “inactive; negative”. Further, the mutagenic call (Test System: E. COLI, Strain/Indicator: WP2 UVRA, Metabolic Activation: RAT, LIVER, S-9, Method: STANDARD PLATE) is “inactive; negative”.
Take `COC(=O)Nc1nc2ccc(O)cc2[nH]1`: the mutagenic call by setting is: under setting [13], “inactive; negative”; under setting [14], “inactive; negative”; under setting [15], “inactive; negative”; under setting [16], “inactive; negative”; (Test System: AMES SALMONELLA TYPHIMURIUM, Strain/Indicator: TA1535, Metabolic Activation: NONE, Method: STANDARD PLATE) “inactive; negative”; (Test System: AMES SALMONELLA TYPHIMURIUM, Strain/Indicator: TA1535, Metabolic Activation: RAT, LIVER, S-9, AROCLOR 1254, Method: STANDARD PLATE) “inactive; negative”. For the same compound, the mutagenic call is “inactive; negative” (Test System: AMES SALMONELLA TYPHIMURIUM, Strain/Indicator: TA1537, Metabolic Activation: NONE, Method: STANDARD PLATE) and “inactive; negative” (Test System: AMES SALMONELLA TYPHIMURIUM, Strain/Indicator: TA1537, Metabolic Activation: RAT, LIVER, S-9, AROCLOR 1254, Method: STANDARD PLATE).
As to `O=C(O)CCC(=O)Nc1cc(Cl)cc(Cl)c1`, the mutagenic call is “inactive; negative” under setting [13], “inactive; negative” under setting [14], “inactive; negative” under setting [15] and “inactive; negative” under setting [16].
As for `COc1ccc([N+](=O)[O-])cc1N=Nc1c(O)c(C(=O)Nc2cccc([N+](=O)[O-])c2)cc2ccccc12`, the mutagenic call under setting [1] was “active; positive”; the mutagenic call under setting [2] was “active; positive”; the mutagenic call under setting [3] is “active; positive”; the mutagenic call under setting [4] was “active; positive”; the mutagenic call under setting [5] is “active; positive”; the mutagenic call under setting [6] is “active; positive”. In addition, the mutagenic call is, setting by setting: under setting [7], “inactive; negative”; under setting [8], “inactive; negative”; under setting [9], “inactive; negative”; under setting [10], “active; positive”; under setting [11], “active; positive”; under setting [12], “active; positive”.
Turning to `COc1cc(-c2cc(OC)cc(C(C)(C)C)c2O)c(O)c(C(C)(C)C)c1`, the mutagenic call is, setting by setting: (Test System: AMES SALMONELLA TYPHIMURIUM, Strain/Indicator: TA97, Metabolic Activation: NONE, Method: PREINCUBATION) “inactive; negative”; (Test System: AMES SALMONELLA TYPHIMURIUM, Strain/Indicator: TA97, Metabolic Activation: RAT, LIVER, S-9, PCB, Method: PREINCUBATION) “inactive; negative”; under setting [2], “inactive; negative”; (Test System: AMES SALMONELLA TYPHIMURIUM, Strain/Indicator: TA98, Metabolic Activation: RAT, LIVER, S-9, PCB, Method: PREINCUBATION) “inactive; negative”; under setting [5], “inactive; negative”; (Test System: AMES SALMONELLA TYPHIMURIUM, Strain/Indicator: TA100, Metabolic Activation: RAT, LIVER, S-9, PCB, Method: PREINCUBATION) “inactive; negative”. Further, the mutagenic call (Test System: AMES SALMONELLA TYPHIMURIUM, Strain/Indicator: TA102, Metabolic Activation: NONE, Method: PREINCUBATION) was “inactive; negative” and the mutagenic call (Test System: AMES SALMONELLA TYPHIMURIUM, Strain/Indicator: TA102, Metabolic Activation: RAT, LIVER, S-9, PCB, Method: PREINCUBATION) was “inactive; negative”.
Consider `Cc1ccc2c(c1)-c1ccccc1C2C` (stereo unspecified), for which the mutagenic call by setting is: under setting [14], “active; positive”; under setting [16], “active; positive”.
With `C=C1C(=O)O[C@@H]2CCN3CC=C(COC(=O)[C@](C)(O)[C@H](C)[C@H]1C)[C@H]23`, the mutagenic call (Test System: AMES SALMONELLA TYPHIMURIUM, Strain/Indicator: TA100, Metabolic Activation: RAT, LIVER, S-9, SODIUM PHENOBARBITAL AND BETA-NAPHTHOFLAVONE, Method: PREINCUBATION) was “inactive; negative”.
